Entries after “also recorded” stand apart in the source; their conditions may differ.
Tests used:
σ1 receptor [1] = biological target: σ1 receptor; parameters: method as in PMID 21278085, PMID 15170821, PMID 18647636, PMID 22935988, PMID 21967807; conditions: representative σ1 receptor ligands, Fig. 1; cited from earlier work
σ2 receptor [2] = biological target: T1, σ2 receptor (Rattus norvegicus, UniProt Q5U3Y7); assay: Radioligand binding at σ2 receptor ([3H]-DTG, NIMH PDSP); conditions: for Ki: [3H] DTG, PC12 cells, mean ± SEM, three independent experiments; for Increase of binding affinity for σ2 receptor relative to compound 7: compared with parent compound 7
T1 construct: (b) σ2 receptor, [^3H]-DTG, PC-12 cells; endogenous in cells; host or cells: PC-12 cells
T1 sequence (Q5U3Y7 1-176): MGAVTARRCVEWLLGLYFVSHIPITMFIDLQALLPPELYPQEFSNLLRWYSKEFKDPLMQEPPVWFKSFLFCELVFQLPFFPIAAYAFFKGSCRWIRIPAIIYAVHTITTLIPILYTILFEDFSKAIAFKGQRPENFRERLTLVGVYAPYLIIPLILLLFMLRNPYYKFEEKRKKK
Source text: (§1) In this study, [^3H] pentazocine and [^3H]DTG (6) were used as the radioligands at σ1 and σ2 receptors. Firstly, we examined the effects of changing the substituents on the benzene ring. […] Mono-halogen substitution on the benzene ring exemplified by compounds 17–20 generally retained affinity for σ1 receptor compared with compound 7. […] The derivatives 21–25 also maintained similar high affinities for the σ1 receptor upon incorporation of two halogen atoms on the benzene ring. However, this is also accompanied with higher binding affinity to the σ2 receptor. […]. Next, we examined the effects of removing the methyl group on the basic nitrogen atom. […] […]. […] The results for the secondary amines 28 and 29 indicate that the hydrogen bond donor on basic nitrogen atom was beneficial for increased binding affinity to the σ1 receptor.
(§2) Radioligand competition studies were carried out by the National Institute of Mental Health's Psychoactive Drug Screening Program, Contract #HHSN-271-2008-00025-C (NIMH PDSP). The general procedures are listed as follows:
(§3) All the test compounds solution (1 mg mL^−1) were prepared by dissolving in DMSO or buffer solvent (50 mM Tris–HCl, pH = 8.0). The filter-mats were presoaked in 0.5% aqueous polyethyleneimine solution for 2 h at rt before use. All binding experiments were carried out in poly-L-lysine-coated 96-well plate and the final test concentration (50 μM, 5 μM, 1.5 μM, 500 nM, 150 nM, 50 nM, 15 nM, 5 nM, 1.5 nM, 0.5 nM, 0.05 nM) were prepared by addition of Tris–HCl solution (50 mM, pH = 8.0). The following specific radioligands and tissue source were used: (a) σ1 receptor, [^3H]-(+)-pentazocine, Guinea pig brain homogenate; (b) σ2 receptor, [^3H]-DTG, PC-12 cells. 100 μL of corresponding radioligand solution, 100 μL test compound solution and 50 μL of the respective receptor preparation into each well of the plate (total volume 250 μL). During the incubation, the plates were shaken at a speed of 500–600 rpm at the specified temperature (σ1 receptor, 37 °C, 150 min; σ2 receptor, rt, 120 min). The incubation was followed by a rapid vacuum filtration through Whatman GF/B glass filters, and the filtrates were washed twice with 10 mL of cold buffer and transferred to the 6 mL scintillation vials. EcoScint scintillation fluid (4.0 mL) was added, and the radioactivity bound was measured using a Beckman LS 6500 liquid scintillation counter. All experiments were performed at least three times.
(§4) For experimental details please refer to the PDSP website http://pdsp.med.unc.edu/.[28]

σ1 receptor [3] = biological target: T2, σ1 receptor (Cavia porcellus, UniProt Q60492); assay: Radioligand binding at σ1 receptor ([3H]-(+)-pentazocine, NIMH PDSP); parameters: species or system Guinea pig; conditions: for Ki: [3H]-(+)-pentazocine, Guinea pig brain homogenate, mean ± SEM, three independent experiments; for Selectivity (Ki σ2/Ki σ1): ratio of Ki σ2 to Ki σ1
T2 construct: σ1 receptor, [^3H]-(+)-pentazocine, Guinea pig brain homogenate; from tissue; host or cells: Guinea pig brain homogenate
Source text: as §1, §2, §3, §4

[4] = biological target: DAT: dopamine transporter (Homo sapiens, UniProt Q01959); assay: Radioligand binding at DAT ([3H] WIN35428)
Experimental: (§5) In order to exclude the potential interference of other receptor pathways to the observed neuritogenesis efficacy, we assessed the binding affinities of compounds 7, 18, 22, 24, 25, 28 and 29 at the biogenic amine transporters (NET, DAT, and SERT).
as §2, §4

N1E-115 neuronal cells = assay: Neurite outgrowth in N1E-115 cells; type: cell-based, mouse; conditions: 10 μM in DMSO, four days, vs. vehicle (DMSO)
Experimental: Following the radioligand binding studies and CNS MPO calculations, all of the synthesized derivatives were further tested in cellular neuritogenesis studies. In this study, N1E-115 neuronal cells were used as a screening platform for assessing the neuritogenesis effects of candidate compounds.[31,32] All the derivatives and positive control (compound 7 and RC-33) were assessed at 10 μM concentration in DMSO, and vehicle group using DMSO alone.
N1E-115 cells, the mouse neuroblastoma cell lines, were obtained from the American Type Culture Collection (ATCC, Manassas, VA, USA). Undifferentiated N1E115 cells were cultured in DMEM complete medium with 10% fetal bovine serum, 100 U mL^−1 of penicillin, and 100 μg mL^−1 of streptomycin and maintained at 37 °C in a humidified incubator supplemented with 5% CO2. N1E-115 cells were seeded at a density of 1 × 10^4 cells per mL on poly-L-lysine-coated 96-well plates and grown with DMSO or different tested compounds (10 μM) in DMSO solution for four days. Four days after incubation, morphometric analysis was performed on digitized images of live cells taken under phase contrast illumination with an inverted microscope linked to a camera. Images of five fields per well were taken with an average of 100 cells per field. Cells that had at least one neurite with a length that was twice as long as the body diameter were expressed as a percentage of the total cells in the field. The counting was performed in a blinded manner. All experiments were performed at least five times.

[5] = biological target: NET: norepinephrine transporter (Homo sapiens, UniProt P23975); assay: Radioligand binding at NET ([3H] nisoxetine)
Experimental: as §5, §2, §4

σ2 receptor [6] = biological target: σ2 receptor; parameters: method as in PMID 21278085, PMID 15170821, PMID 18647636, PMID 22935988, PMID 21967807; conditions: representative σ1 receptor ligands, Fig. 1; cited from earlier work

DAT: dopamine transporter, sequence (Q01959 whole entry): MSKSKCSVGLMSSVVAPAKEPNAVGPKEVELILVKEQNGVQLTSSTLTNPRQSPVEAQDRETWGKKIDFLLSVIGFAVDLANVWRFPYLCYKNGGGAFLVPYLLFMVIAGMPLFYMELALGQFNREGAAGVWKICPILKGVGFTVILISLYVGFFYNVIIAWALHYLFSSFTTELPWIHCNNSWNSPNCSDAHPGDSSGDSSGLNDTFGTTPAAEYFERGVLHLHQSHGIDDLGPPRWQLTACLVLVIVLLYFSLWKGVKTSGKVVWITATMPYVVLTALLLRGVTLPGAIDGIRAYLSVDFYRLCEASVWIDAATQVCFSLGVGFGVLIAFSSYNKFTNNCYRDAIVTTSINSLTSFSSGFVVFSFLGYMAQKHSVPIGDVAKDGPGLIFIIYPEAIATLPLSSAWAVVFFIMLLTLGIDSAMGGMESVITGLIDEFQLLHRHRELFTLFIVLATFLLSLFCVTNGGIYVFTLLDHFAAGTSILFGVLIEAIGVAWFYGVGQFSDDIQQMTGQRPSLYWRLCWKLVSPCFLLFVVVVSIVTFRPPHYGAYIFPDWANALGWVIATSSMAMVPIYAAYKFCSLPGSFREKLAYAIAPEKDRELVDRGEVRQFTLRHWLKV
T2 sequence (Q60492 whole entry): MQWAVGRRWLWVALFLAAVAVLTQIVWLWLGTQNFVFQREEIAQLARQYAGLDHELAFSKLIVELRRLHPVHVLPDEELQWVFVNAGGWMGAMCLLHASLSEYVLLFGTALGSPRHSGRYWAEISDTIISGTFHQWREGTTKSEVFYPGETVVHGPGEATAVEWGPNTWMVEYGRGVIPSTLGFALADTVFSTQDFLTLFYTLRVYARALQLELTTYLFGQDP
NET: norepinephrine transporter, sequence (P23975 whole entry): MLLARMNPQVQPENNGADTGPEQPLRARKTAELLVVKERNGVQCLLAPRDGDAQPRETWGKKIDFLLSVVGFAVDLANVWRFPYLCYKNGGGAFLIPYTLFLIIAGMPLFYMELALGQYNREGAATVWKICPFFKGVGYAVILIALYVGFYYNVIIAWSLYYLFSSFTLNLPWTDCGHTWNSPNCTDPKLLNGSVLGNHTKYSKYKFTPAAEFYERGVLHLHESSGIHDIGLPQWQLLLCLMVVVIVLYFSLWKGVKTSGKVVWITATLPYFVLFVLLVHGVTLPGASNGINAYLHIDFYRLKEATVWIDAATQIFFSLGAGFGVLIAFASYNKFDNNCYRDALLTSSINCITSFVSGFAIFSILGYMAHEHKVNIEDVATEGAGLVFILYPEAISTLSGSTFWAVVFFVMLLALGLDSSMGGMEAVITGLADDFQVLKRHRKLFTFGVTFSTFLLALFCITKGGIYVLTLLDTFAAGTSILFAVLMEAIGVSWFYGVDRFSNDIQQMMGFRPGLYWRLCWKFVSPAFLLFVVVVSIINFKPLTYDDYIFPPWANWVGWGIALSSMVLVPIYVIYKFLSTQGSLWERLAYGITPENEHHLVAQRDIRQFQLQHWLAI

Row | Structure (SMILES) | Ki (σ1 receptor [1]) [nM] | Ki (σ2 receptor [2]) [nM] | Ki (σ1 receptor [3]) [nM] | Selectivity (Ki σ2/Ki σ1) (σ1 receptor [3]) | Ki [4] [nM] | Neurite outgrowth (neuritogenesis) effect (N1E-115 neuronal cells) | Ki [5] [nM] | Increase of binding affinity for σ2 receptor relative to compound 7 (σ2 receptor [2]) | Decrease of affinity for σ1 receptor relative to compound 7 (σ1 receptor [3]; compared with parent compound 7) [fold] | Ki (σ2 receptor [6]) [nM]
1 | C[C@H](CCN1CCCCC1)c1ccc(-c2ccccc2)cc1 [(R)-RC-33] | 1.8 |  |  |  |  |  |  |  |  | 
2 | CN(CCOc1cc(COc2cccc(F)c2)on1)C1CCC1.Cl [Compound 17, N-(2-((5-((3-Fluorophenoxy)methyl)isoxazol-3-yl)oxy)ethyl)-N-methylcyclobutanamine hydrochloride] |  | 91.5 ± 7.5 | 1.9 | 48 |  |  |  |  |  | 
3 | CN(CCOc1cc(COc2ccc(F)cc2)on1)C1CCC1.Cl [Compound 18, N-(2-((5-((4-Fluorophenoxy)methyl)isoxazol-3-yl)oxy)ethyl)-N-methylcyclobutanamine hydrochloride] |  | 78.5 ± 19.5 | 0.9 ± 0.1 | 87 | 5630 | preferable neurite outgrowth effects compared to the parent compound 7 and positive control RC-33; also recorded: significant neuritogenesis effects |  |  |  | 
4 | CN(CCOc1cc(COc2cccc(Br)c2)on1)C1CCC1.Cl [Compound 19, N-(2-((5-((3-Bromophenoxy)methyl)isoxazol-3-yl)oxy)ethyl)-N-methylcyclobutanamine hydrochloride] |  | 105 ± 21 | 0.8 ± 0.1 | 131 |  |  |  |  |  | 
5 | CN(CCOc1cc(COc2ccc(Br)cc2)on1)C1CCC1.Cl [Compound 20, N-(2-((5-((4-Bromophenoxy)methyl)isoxazol-3-yl)oxy)ethyl)-N-methyl-cyclobutanamine hydrochloride] |  | 86.6 ± 16.8 | 5.5 ± 1.3 | 16 |  |  |  |  |  | 
6 | CN(CCOc1cc(COc2ccc(F)c(F)c2)on1)C1CCC1.Cl [Compound 21, N-(2-((5-((3,4-Difluorophenoxy)methyl)isoxazol-3-yl)oxy)ethyl)-N-methylcyclobutanamine hydrochloride] |  | 153 ± 37 | 1.7 ± 0.3 | 90 |  |  |  |  |  | 
7 | CN(CCOc1cc(COc2cc(F)cc(F)c2)on1)C1CCC1.Cl [Compound 22, N-(2-((5-((3,5-Difluorophenoxy)methyl)isoxazol-3-yl)oxy)ethyl)-N-methylcyclobutanamine hydrochloride] |  | 57 ± 20.1 | 2.4 ± 1.2 | 24 | > 10000 | preferable neurite outgrowth effects compared to the parent compound 7 and positive control RC-33; also recorded: significant neuritogenesis effects | 2880 |  |  | 
8 | CN(CCOc1cc(COc2ccc(Cl)c(Cl)c2)on1)C1CCC1.Cl [Compound 23, N-(2-((5-((3,4-Dichlorophenoxy)methyl)isoxazol-3-yl)oxy)ethyl)-N-methylcyclobutanamine hydrochloride] |  | 36 ± 9.7 | 3.2 ± 1.6 | 11 |  |  |  |  |  | 
9 | CN(CCOc1cc(COc2cc(Cl)cc(Cl)c2)on1)C1CCC1.Cl [Compound 24, N-(2-((5-((3,5-Dichlorophenoxy)methyl)isoxazol-3-yl)oxy)ethyl)-N-methylcyclobutanamine hydrochloride] |  | 22.8 ± 11.1 | 7.8 ± 3.2 | 3.0 | 1810 | preferable neurite outgrowth effects compared to the parent compound 7 and positive control RC-33; also recorded: significant neuritogenesis effects | 1610 | more than 10 fold | 4 | 
10 | CN(CCOc1cc(COc2ccc(F)c(Cl)c2)on1)C1CCC1.Cl [Compound 25, N-(2-((5-((3-Chloro-4-fluorophenoxy)methyl)isoxazol-3-yl)oxy)ethyl)-N-methylcyclobutanamine hydrochloride] |  | 32 ± 6 | 1.3 ± 0.4 | 25 | > 10000 | preferable neurite outgrowth effects compared to the parent compound 7 and positive control RC-33; also recorded: significant neuritogenesis effects | 1780 |  |  | 
11 | CN(CCOc1cc(COc2cccc(C(F)(F)F)c2)on1)C1CCC1.Cl [Compound 26, N-Methyl-N-(2-((5-((3-(trifluoromethyl)phenoxy)methyl)isoxazol-3-yl)oxy)ethyl)cyclobutanamine hydrochloride] |  | 38 ± 2 | 4 ± 1.2 | 9.5 |  | better efficacy than other mono-substituted compounds |  |  |  | 
12 | Cc1cccc(OCc2cc(OCCN(C)C3CCC3)no2)c1.Cl [Compound 27, N-Methyl-N-(2-((5-((m-tolyloxy)methyl)isoxazol-3-yl)oxy)ethyl)cyclobutanamine hydrochloride] |  | 124 ± 68 | 4.2 ± 1.9 | 29.5 |  |  |  | 3 fold |  | 
13 | Cl.c1ccc(OCc2cc(OCCNC3CCC3)no2)cc1 [Compound 28, N-(2-((5-(Phenoxymethyl)isoxazol-3-yl)oxy)ethyl)cyclobutanamine hydrochloride] |  | 198 ± 64 | 0.2 | 990 |  | preferable neurite outgrowth effects compared to the parent compound 7 and positive control RC-33; also recorded: significant neuritogenesis effects | 7100 |  |  | 
14 | Cl.Clc1cccc(OCc2cc(OCCNC3CCC3)no2)c1 [Compound 29, N-(2-((5-((3-Chlorophenoxy)methyl)isoxazol-3-yl)oxy)ethyl)cyclobutanamine hydrochloride] |  | 64.5 ± 13.2 | 0.4 ± 0.1 | 161 | 1520 | preferable neurite outgrowth effects compared to the parent compound 7 and positive control RC-33; also recorded: significant neuritogenesis effects | 600 |  |  | 
15 | Cl.c1ccc(OCc2cc(OCCN(C3CCC3)C3CCC3)no2)cc1 [Compound 30, N-Cyclobutyl-N-(2-((5-(phenoxymethyl)isoxazol-3-yl)oxy)ethyl)cyclobutanamine hydrochloride] |  | 53.5 ± 0.5 | 16 ± 5 | 3.3 |  |  |  |  |  | 
16 | CCCN(CCC)CCc1ccc(OC)c(OCCc2ccccc2)c1 [NE-100] | 1.03 |  |  |  |  |  |  |  |  | 212
17 | O=C(OCCN1CCOCC1)C1(c2ccccc2)CCCCC1 [PRE-084] |  |  |  |  |  |  |  |  |  | > 10000
